{"source": "patent US8084059B2", "about": "“Antidepressant dosage form” (ALZA Corporation, priority 1993, dated 2011)", "origin": "cited, not measured here", "key": {"[1]": {"conditions": "humans"}, "[2]": {"tested_on": "neuronal uptake of dopamine", "conditions": "in vitro"}, "[3]": {"tested_on": "cyclicadenosine monophosphate subsensitivity", "conditions": "after both acute and chronic administration"}, "[4]": {"tested_on": "effects of levodopa", "conditions": "in vivo"}, "[5]": {"tested_on": "monoamine oxidase", "conditions": "in vitro"}, "[6]": {"tested_on": "histamine-induced corticotropin release", "conditions": "in vivo"}, "[7]": {"tested_on": "neuronal uptake of morepinephrine", "conditions": "in vitro"}, "[8]": {"tested_on": "reserpine-induced hypothermia", "conditions": "in vivo"}}}
{"smiles": "COc1ccc(C(CN(C)C)C2(O)CCCCC2)cc1", "note": "(centres unmarked) [1-[2-(dimethylamino)-1-(4-methoxyphenyl)ethyl]cyclohexanol]", "values": [{"measurement": "antidepressant activity", "setting": "[1]", "result": "excellent"}, {"measurement": "neuronal uptake of dopamine", "setting": "[2]", "result": "prevents"}, {"measurement": "cyclicadenosine monophosphate subsensitivity", "setting": "[3]", "result": "induces"}, {"measurement": "effect on the effects of levodopa", "setting": "[4]", "result": "potentiates"}, {"measurement": "inhibition of monoamine oxidase", "setting": "[5]", "result": "does not inhibit"}, {"measurement": "effect on histamine-induced corticotropin release", "setting": "[6]", "result": "reduces"}, {"measurement": "neuronal uptake of morepinephrine", "setting": "[7]", "result": "prevents"}, {"measurement": "effect on reserpine-induced hypothermia", "setting": "[8]", "result": "antagonizes"}]}
